# Active and inactive are the calls of the source. The calls are words filed in the database; no cut-off is given here.
# What was measured:
# [1] = biological target: Serine/threonine-protein kinase PAK 2 (Homo sapiens) (UniProt Q13177); assay: Inhibition of human recombinant PAK2 assessed as residual activity at 10 uM after 1 hr by qPCR analysis relative to control
# [2] = biological target: MAP kinase-interacting serine/threonine-protein kinase 1 (Homo sapiens) (UniProt Q9BUB5); assay: Inhibition of human recombinant MKNK1 assessed as residual activity at 10 uM after 1 hr by qPCR analysis relative to control
# [3] = biological target: Serine/threonine-protein kinase DCLK1 (Homo sapiens) (UniProt O15075); assay: Inhibition of human recombinant DCAMKL1 assessed as residual activity at 10 uM after 1 hr by qPCR analysis relative to control
# [4] = biological target: Tyrosine-protein kinase ABL1 (Homo sapiens) (UniProt P00519); assay: Inhibition of human recombinant phosphorylated ABL1 assessed as residual activity at 10 uM after 1 hr by qPCR analysis relative to control
# Mus musculus [5] = assay: Toxicity in athymic nude/beige mouse xenografted with human 786-O cells assessed as mild spasm at 0.16 mg/kg, ip qd after 24 days; type: organism-based, 786-0; details: in vivo, 576 h
# [6] = biological target: Angiopoietin-1 receptor (Homo sapiens) (UniProt Q02763); assay: Inhibition of human recombinant TIE2 assessed as residual activity at 10 uM after 1 hr by qPCR analysis relative to control
# [7] = biological target: Vascular endothelial growth factor receptor 2 (Homo sapiens) (UniProt P35968); assay: Inhibition of human recombinant VEGFR2 assessed as residual activity at 10 uM after 1 hr by qPCR analysis relative to control
# [8] = biological target: RAC-beta serine/threonine-protein kinase (Homo sapiens) (UniProt P31751); assay: Inhibition of human recombinant AKT2 assessed as residual activity at 10 uM after 1 hr by qPCR analysis relative to control
# [9] = biological target: Phosphatidylinositol 4,5-bisphosphate 3-kinase catalytic subunit gamma isoform (Homo sapiens) (UniProt P48736); assay: Inhibition of human recombinant PIK3CG assessed as residual activity at 10 uM after 1 hr by qPCR analysis relative to control
# [10] = biological target: Inhibitor of nuclear factor kappa-B kinase subunit alpha (Homo sapiens) (UniProt O15111); assay: Inhibition of human recombinant IKKalpha assessed as residual activity at 10 uM after 1 hr by qPCR analysis relative to control
# [11] = biological target: Cyclin-dependent kinase 2 (Homo sapiens) (UniProt P24941); assay: Inhibition of human recombinant CDK2 assessed as residual activity at 10 uM after 1 hr by qPCR analysis relative to control
# [12] = biological target: Serine/threonine-protein kinase STK11 (Homo sapiens) (UniProt Q15831); assay: Inhibition of human recombinant LKB1 assessed as residual activity at 10 uM after 1 hr by qPCR analysis relative to control
# [13] = test system: Serine/threonine-protein kinase B-raf (Homo sapiens), P15056 [V600E]; assay: Inhibition of human recombinant BRAF V600E mutant assessed as residual activity at 10 uM after 1 hr by qPCR analysis relative to control
# [14] = biological target: Non-receptor tyrosine-protein kinase TYK2 (Homo sapiens) (UniProt P29597); assay: Inhibition of human recombinant TYK2 (JH1 domain-catalytic) assessed as residual activity at 10 uM after 1 hr by qPCR analysis relative to control
# [15] = biological target: Receptor-type tyrosine-protein kinase FLT3 (Homo sapiens) (UniProt P36888); assay: Inhibition of human recombinant FLT3 assessed as residual activity at 10 uM after 1 hr by qPCR analysis relative to control
# [16] = biological target: RAC-alpha serine/threonine-protein kinase (Homo sapiens) (UniProt P31749); assay: Inhibition of human recombinant AKT1 assessed as residual activity at 10 uM after 1 hr by qPCR analysis relative to control
# [17] = biological target: cAMP-dependent protein kinase catalytic subunit alpha (Homo sapiens) (UniProt P17612); assay: Inhibition of human recombinant PKACalpha assessed as residual activity at 10 uM after 1 hr by qPCR analysis relative to control
# 786-0 [18] = assay: Antitumor activity against human 786-0 cells xenografted in athymic nude/beige mouse assessed as tumor growth inhibition at 0.16 mg/kg, ip qd after 24 days; type: functional, organism-based
# [19] = biological target: Mitogen-activated protein kinase kinase kinase 4 (Homo sapiens) (UniProt Q9Y6R4); assay: Inhibition of human recombinant MAP3K4 assessed as residual activity at 10 uM after 1 hr by qPCR analysis relative to control
# [20] = biological target: Tyrosine-protein kinase ZAP-70 (Homo sapiens) (UniProt P43403); assay: Inhibition of human recombinant ZAP70 assessed as residual activity at 10 uM after 1 hr by qPCR analysis relative to control
# [21] = biological target: Cyclin-dependent kinase 16 (Homo sapiens) (UniProt Q00536); assay: Inhibition of human recombinant PCTK1 assessed as residual activity at 10 uM after 1 hr by qPCR analysis relative to control
# [22] = biological target: Testis-specific serine/threonine-protein kinase 1 (Homo sapiens) (UniProt Q9BXA7); assay: Inhibition of human recombinant TSSK1B assessed as residual activity at 10 uM after 1 hr by qPCR analysis relative to control
# [23] = biological target: Inhibitor of nuclear factor kappa-B kinase subunit beta (Homo sapiens) (UniProt O14920); assay: Inhibition of human recombinant IKKbeta assessed as residual activity at 10 uM after 1 hr by qPCR analysis relative to control
# [24] = biological target: Cyclin-dependent kinase 7 (Homo sapiens) (UniProt P50613); assay: Inhibition of human recombinant CDK7 assessed as residual activity at 10 uM after 1 hr by qPCR analysis relative to control
# [25] = biological target: Mitogen-activated protein kinase 11 (Homo sapiens) (UniProt Q15759); assay: Inhibition of human recombinant p38beta assessed as residual activity at 10 uM after 1 hr by qPCR analysis relative to control
# [26] = biological target: Serine/threonine-protein kinase RIO2 (Homo sapiens) (UniProt Q9BVS4); assay: Inhibition of human recombinant RIOK2 assessed as residual activity at 10 uM after 1 hr by qPCR analysis relative to control
# [27] = biological target: MAP kinase-interacting serine/threonine-protein kinase 2 (Homo sapiens) (UniProt Q9HBH9); assay: Inhibition of human recombinant MKNK2 assessed as residual activity at 10 uM after 1 hr by qPCR analysis relative to control
# [28] = biological target: Tyrosine-protein kinase BTK (Homo sapiens) (UniProt Q06187); assay: Inhibition of human recombinant BTK assessed as residual activity at 10 uM after 1 hr by qPCR analysis relative to control
# 786-0 [29] = assay: Antitumor activity against human 786-0 cells xenografted in athymic nude/beige mouse assessed as reduction in tumor mass at 0.16 mg/kg, ip qd after 24 days; type: functional, organism-based
# [30] = biological target: Serine/threonine-protein kinase pim-2 (Homo sapiens) (UniProt Q9P1W9); assay: Inhibition of human recombinant PIM2 assessed as residual activity at 10 uM after 1 hr by qPCR analysis relative to control
# Mus musculus [31] = assay: Toxicity in athymic nude/beige mouse xenografted with human 786-O cells assessed as signs of facial hirsutism at 0.16 mg/kg, ip qd after 24 days; type: organism-based, 786-0; details: in vivo, 576 h
# Chain of Serine/threonine-protein kinase pim-2 (Homo sapiens) (Q9P1W9 whole entry, looked up): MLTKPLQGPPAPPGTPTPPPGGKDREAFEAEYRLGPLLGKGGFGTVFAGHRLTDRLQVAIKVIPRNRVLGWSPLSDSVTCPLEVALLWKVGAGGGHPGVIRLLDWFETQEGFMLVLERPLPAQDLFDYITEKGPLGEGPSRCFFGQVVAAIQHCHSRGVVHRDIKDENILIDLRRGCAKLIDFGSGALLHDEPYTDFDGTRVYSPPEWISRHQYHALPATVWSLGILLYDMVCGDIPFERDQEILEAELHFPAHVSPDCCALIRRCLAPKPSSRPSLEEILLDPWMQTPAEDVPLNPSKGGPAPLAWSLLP
# Chain of Angiopoietin-1 receptor (Homo sapiens) (Q02763 whole entry): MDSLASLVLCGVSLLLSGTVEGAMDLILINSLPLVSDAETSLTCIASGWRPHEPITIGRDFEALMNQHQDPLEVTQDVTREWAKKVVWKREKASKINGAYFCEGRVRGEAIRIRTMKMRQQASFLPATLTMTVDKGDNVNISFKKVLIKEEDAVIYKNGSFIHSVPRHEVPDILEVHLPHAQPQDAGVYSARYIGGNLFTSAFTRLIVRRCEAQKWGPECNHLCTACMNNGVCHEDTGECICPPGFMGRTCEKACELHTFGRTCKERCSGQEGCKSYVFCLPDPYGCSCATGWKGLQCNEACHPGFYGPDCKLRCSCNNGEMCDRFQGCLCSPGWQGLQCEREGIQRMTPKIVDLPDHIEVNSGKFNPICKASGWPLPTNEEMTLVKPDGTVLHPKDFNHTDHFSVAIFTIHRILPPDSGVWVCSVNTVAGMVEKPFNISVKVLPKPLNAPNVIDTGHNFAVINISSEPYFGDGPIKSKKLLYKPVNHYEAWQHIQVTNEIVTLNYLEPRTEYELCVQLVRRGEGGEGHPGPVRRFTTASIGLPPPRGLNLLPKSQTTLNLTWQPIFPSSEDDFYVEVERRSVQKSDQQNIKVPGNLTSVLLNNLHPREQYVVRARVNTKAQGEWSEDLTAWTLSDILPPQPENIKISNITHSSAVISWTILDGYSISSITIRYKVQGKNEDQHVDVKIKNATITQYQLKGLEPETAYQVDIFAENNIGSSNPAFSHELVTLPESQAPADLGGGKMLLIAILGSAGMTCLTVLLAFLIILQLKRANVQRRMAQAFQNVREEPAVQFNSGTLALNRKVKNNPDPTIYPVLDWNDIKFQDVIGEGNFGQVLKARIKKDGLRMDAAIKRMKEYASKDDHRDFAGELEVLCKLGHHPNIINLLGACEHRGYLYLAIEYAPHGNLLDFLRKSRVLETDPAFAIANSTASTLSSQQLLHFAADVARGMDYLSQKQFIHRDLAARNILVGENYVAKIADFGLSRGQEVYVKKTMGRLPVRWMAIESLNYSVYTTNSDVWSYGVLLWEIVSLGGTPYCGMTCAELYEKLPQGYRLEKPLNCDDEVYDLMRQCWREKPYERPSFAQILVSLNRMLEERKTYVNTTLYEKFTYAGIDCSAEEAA
# Chain of Inhibitor of nuclear factor kappa-B kinase subunit beta (Homo sapiens) (O14920 whole entry): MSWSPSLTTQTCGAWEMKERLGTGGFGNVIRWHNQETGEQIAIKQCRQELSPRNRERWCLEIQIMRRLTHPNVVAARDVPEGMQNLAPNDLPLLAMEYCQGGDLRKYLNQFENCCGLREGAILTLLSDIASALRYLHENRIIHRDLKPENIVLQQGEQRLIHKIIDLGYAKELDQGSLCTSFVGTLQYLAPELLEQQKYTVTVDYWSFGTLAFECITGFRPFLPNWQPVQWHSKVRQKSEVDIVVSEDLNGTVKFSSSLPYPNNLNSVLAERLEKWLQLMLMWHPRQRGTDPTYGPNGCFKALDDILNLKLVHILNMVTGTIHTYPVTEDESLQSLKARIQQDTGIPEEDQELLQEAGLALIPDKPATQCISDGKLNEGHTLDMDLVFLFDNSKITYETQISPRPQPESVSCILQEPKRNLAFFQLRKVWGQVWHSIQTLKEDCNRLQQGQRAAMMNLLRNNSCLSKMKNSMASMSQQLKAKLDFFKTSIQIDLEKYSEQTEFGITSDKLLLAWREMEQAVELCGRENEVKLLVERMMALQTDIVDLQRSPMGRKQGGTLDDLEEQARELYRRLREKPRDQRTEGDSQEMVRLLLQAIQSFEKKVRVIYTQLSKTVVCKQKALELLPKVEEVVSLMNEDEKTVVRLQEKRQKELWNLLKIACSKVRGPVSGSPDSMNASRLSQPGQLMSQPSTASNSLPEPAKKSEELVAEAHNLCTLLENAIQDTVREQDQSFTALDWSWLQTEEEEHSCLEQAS
# Chain of Vascular endothelial growth factor receptor 2 (Homo sapiens) (P35968 whole entry): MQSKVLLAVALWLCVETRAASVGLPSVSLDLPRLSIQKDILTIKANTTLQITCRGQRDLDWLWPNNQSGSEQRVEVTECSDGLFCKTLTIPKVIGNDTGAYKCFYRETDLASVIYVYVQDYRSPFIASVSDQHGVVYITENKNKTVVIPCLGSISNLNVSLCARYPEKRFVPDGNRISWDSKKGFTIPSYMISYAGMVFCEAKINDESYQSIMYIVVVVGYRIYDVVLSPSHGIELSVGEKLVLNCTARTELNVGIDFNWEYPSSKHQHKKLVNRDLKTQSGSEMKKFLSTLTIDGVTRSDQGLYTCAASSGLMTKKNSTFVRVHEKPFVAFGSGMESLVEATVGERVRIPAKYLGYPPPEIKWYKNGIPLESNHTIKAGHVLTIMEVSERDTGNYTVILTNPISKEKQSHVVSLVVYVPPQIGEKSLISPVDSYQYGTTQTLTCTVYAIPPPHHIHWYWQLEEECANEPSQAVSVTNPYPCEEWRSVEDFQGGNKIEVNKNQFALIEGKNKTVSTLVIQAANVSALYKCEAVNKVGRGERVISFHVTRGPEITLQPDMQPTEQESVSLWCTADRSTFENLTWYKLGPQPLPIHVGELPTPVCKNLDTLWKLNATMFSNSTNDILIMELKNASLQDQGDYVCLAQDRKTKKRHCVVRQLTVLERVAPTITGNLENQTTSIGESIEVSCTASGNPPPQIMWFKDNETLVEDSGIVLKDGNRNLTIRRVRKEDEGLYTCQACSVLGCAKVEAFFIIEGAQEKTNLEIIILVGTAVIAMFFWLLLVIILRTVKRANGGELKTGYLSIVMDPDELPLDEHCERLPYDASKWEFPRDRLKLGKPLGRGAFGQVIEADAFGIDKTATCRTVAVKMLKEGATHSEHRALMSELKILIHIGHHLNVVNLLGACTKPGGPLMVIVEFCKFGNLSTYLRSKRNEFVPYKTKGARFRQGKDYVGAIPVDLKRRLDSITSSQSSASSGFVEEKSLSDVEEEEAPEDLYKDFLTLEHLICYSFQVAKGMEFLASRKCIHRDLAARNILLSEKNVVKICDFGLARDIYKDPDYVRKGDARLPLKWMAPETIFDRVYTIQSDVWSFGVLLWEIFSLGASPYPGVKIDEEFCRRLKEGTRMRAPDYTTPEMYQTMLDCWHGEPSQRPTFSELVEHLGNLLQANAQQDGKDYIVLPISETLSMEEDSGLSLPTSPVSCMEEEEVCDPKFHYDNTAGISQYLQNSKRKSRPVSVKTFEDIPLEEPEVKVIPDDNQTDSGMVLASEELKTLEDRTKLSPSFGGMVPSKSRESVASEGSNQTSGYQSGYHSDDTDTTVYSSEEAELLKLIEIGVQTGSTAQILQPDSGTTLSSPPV
# Chain of RAC-alpha serine/threonine-protein kinase (Homo sapiens) (P31749 whole entry): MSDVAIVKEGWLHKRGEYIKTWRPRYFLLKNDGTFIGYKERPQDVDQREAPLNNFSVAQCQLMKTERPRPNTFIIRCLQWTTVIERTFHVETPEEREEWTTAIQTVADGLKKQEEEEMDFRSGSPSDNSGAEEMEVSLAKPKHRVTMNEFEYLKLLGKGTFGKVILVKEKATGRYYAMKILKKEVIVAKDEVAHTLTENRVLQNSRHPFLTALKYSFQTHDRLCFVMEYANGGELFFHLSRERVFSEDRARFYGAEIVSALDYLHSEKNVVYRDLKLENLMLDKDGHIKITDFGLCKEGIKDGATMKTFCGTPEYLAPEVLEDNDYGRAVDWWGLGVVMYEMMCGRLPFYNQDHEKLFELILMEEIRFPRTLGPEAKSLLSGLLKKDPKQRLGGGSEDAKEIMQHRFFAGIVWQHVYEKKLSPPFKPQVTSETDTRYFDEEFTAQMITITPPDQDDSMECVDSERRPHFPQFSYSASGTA
# Chain of Cyclin-dependent kinase 7 (Homo sapiens) (P50613 whole entry): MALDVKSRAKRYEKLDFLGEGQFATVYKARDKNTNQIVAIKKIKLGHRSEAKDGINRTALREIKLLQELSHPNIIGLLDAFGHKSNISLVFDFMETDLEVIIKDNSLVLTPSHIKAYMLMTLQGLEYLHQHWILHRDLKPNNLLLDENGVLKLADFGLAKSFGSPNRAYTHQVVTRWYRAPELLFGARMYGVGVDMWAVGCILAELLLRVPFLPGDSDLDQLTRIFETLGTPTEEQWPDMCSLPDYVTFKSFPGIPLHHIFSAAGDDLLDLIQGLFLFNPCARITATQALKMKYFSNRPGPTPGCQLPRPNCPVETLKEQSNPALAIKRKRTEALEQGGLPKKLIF
# Chain of Cyclin-dependent kinase 16 (Homo sapiens) (Q00536 whole entry): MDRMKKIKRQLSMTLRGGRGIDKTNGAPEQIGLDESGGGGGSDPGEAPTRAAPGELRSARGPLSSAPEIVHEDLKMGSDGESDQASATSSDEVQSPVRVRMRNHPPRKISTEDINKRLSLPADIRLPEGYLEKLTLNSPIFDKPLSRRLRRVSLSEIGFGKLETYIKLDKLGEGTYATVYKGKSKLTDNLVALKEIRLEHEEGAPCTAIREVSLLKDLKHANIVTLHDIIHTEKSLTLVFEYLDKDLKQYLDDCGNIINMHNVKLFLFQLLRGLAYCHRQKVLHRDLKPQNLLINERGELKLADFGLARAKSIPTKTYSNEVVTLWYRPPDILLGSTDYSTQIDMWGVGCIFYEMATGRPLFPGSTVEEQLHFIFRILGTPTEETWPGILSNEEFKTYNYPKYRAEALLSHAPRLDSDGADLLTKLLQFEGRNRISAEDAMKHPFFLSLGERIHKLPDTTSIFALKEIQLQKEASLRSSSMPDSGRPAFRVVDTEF
smiles,measurement,setting,value
Cc1c(Cl)cccc1NC(=O)c1sc2nc3c(cc2c1N)C(=O)CC3,Activity,[1],95%
same,Activity,[2],100%
same,Activity,[3],100%
same,Activity,[4],100%
same,Activity,Mus musculus [5],Toxic
same,Activity,[6],100%
same,Activity,[7],100%
same,Activity,[8],72%
same,Activity,[9],100%
same,Activity,[10],100%
same,Activity,[11],100%
same,Activity,[12],76%
same,Activity,[13],90%
same,Activity,[14],94%
same,Activity,[15],100%
same,Activity,[16],90%
same,Activity,[17],94%
same,TGI,786-0 [18],Active
same,Activity,[19],96%
same,Activity,[20],95%
same,Activity,[21],100%
same,Activity,[22],65%
same,Activity,[23],100%
same,Activity,[24],99%
same,Activity,[25],100%
same,Activity,[26],43%
same,Activity,[27],91%
same,Activity,[28],100%
same,Activity,786-0 [29],Active
same,Activity,[30],80%
same,Activity,Mus musculus [31],Toxic
